From ChEMBL document CHEMBL6127056, “Novel mechanistic insights - A brand new Era for anti-HBV drugs” (Eur J Med Chem, 2024)

Legend:
Hepatitis B virus [1] = experiment: Antiviral activity against Hepatitis B virus assessed as inhibition of HBV DNA replication; format: functional, organism-based
[2] = target: T1, Hepatic sodium/bile acid cotransporter (Homo sapiens, UniProt Q14973); experiment: Inhibition of NTCP (unknown origin)
T1 sequence (Q14973 whole entry): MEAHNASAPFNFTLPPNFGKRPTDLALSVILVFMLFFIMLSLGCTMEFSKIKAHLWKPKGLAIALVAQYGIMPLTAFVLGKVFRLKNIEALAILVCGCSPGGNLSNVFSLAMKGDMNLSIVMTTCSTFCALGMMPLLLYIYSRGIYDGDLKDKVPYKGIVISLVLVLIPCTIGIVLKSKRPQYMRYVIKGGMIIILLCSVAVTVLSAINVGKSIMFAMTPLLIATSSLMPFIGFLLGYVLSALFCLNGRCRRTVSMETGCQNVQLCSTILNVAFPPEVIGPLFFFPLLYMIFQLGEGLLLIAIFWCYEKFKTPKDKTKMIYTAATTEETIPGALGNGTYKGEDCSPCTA

Hepatitis B virus [3] = experiment: Antiviral activity against HBV infected in human Primary hepatocyte assessed as reduction in HBV replication; format: functional, organism-based
Hepatitis B virus [4] = experiment: Antiviral activity against HBV infected in human HepDES19 cells assessed as inhibition of extracellular HBV DNA by qPCR analysis; format: functional, organism-based
HepG2 2.2.15 = experiment: Cytotoxicity against human HepG2.2.15 cells assessed as reduction in cell viability by CellTiter-Blue reagent based analysis; format: functional
[5] = target: Triosephosphate isomerase (Homo sapiens, UniProt P60174); experiment: Inhibition of TPI1 (unknown origin)
Chain of Triosephosphate isomerase (P60174 whole entry): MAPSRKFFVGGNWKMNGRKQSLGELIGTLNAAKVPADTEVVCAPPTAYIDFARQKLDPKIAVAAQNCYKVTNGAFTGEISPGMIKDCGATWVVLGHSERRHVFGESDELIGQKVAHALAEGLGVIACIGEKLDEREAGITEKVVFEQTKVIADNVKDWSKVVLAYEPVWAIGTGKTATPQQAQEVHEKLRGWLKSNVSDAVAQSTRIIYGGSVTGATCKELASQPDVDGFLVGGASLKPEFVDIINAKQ

Hepatitis B virus [6] = experiment: Antiviral activity against HBV infected in human HepAD38 cells assessed as inhibition of viral replication; format: functional, organism-based
Hepatitis B virus [7] = experiment: Antiviral activity against HBV infected in human HepG2.2.15 cells assessed as reduction in viral DNA levels incubated for 6 days by PCR analysis; format: functional, organism-based; conditions: HepG2.2.15, 144 h
[8] = Inhibition of HBV RNA polymerase; parameters: species or system Hepatitis B virus
Hepatitis B virus [9] = experiment: Antiviral activity against wild type HBV infected in HepG2.2.15 cells assessed as reduction in viral replication; format: functional, organism-based
SRSF protein kinase 1 = SRSF protein kinase 1 (Homo sapiens, UniProt Q96SB4); experiment: Inhibition of SRPK-1 (unknown origin)
Chain of SRSF protein kinase 1 (Q96SB4 whole entry): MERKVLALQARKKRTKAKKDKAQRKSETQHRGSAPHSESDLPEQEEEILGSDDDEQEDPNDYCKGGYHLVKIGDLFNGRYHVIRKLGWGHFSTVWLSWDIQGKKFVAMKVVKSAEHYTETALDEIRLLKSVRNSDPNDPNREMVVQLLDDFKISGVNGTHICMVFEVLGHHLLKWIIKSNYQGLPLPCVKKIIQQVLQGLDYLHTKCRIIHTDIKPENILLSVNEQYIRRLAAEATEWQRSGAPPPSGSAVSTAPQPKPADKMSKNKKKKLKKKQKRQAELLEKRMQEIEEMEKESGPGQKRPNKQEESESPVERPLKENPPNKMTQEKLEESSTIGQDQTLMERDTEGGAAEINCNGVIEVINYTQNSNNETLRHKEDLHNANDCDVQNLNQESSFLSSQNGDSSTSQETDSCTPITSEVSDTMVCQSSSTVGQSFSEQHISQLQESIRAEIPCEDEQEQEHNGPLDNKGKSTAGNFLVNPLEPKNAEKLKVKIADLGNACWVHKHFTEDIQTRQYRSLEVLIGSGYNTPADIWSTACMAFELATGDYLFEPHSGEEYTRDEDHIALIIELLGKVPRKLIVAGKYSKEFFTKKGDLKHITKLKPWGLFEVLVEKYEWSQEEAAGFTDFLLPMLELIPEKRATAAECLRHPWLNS

Hepatitis B virus [10] = experiment: Antiviral activity against HBV infected in human HepG2.117 cells assessed as reduction in intracellular DNA level by RT-qPCR analysis; format: functional, organism-based
[11] = target: T2, NAD-dependent protein deacetylase sirtuin-2 (Homo sapiens, UniProt Q8IXJ6); experiment: Inhibition of SIRT2 (unknown origin)
T2 sequence (Q8IXJ6 whole entry): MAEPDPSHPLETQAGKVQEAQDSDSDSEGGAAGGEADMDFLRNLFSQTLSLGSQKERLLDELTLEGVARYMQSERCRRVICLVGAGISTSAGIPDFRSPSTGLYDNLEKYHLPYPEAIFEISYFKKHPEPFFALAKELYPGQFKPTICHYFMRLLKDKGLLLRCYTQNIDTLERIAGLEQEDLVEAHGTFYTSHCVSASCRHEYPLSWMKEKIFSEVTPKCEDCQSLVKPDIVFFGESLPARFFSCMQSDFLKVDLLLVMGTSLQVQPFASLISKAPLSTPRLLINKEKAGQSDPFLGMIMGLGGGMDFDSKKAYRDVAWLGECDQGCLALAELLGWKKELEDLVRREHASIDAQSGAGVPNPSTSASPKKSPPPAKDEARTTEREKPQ

Hepatitis B virus [12] = experiment: Antiviral activity against HBV infected in human HepG2-hNTCP cells assessed as reduction in HBV DNA replication by qRT-PCR analysis; format: functional, organism-based

For `C/C(=N\c1cccc(F)c1)c1c(C)cc(=O)n(O)c1O`, which EC50 (Hepatitis B virus [1]) is on record?
Its EC50 is 2100 nM.

With `C=C(C)[C@@H]1CC[C@]2(C(=O)NCc3cn([C@H]4c5cc6c(cc5[C@H](c5cc(OC)c(OC)c(OC)c5)[C@H]5C(=O)OC[C@@H]54)OCO6)nn3)CC[C@@]3(C)[C@]4(C)CC[C@H]5C(C)(C)[C@@H](O)CC[C@]5(C)[C@H]4CC[C@]3(C)[C@@H]12` as the compound, how does the IC50 [2] read?
Its IC50 is 790 nM.

With `CCn1ccnc1-c1c(-c2ccccc2)ncn1CCCc1cccnc1` as the compound, how does the EC50 (Hepatitis B virus [1]) read?
Its EC50 is 10000 nM.

Which EC50 (Hepatitis B virus [3]) does the source give for `O=C(O)C1CC(OCCOc2ccc(-c3cc(=O)c4cccc(Cl)c4o3)cc2)C1` (stereo not given) here?
The EC50 was 200 nM.

With `CCOC(=O)C1=C(CN2CCN(C(C(=O)O)c3ccoc3)CC2)NC(c2nccs2)=NC1c1ccc(F)cc1Br` (stereo not given) as the compound, how does the EC50 (Hepatitis B virus [4]) read?
Its EC50 is over 10000 nM.

For `N#Cc1ccc(Cn2nc(-c3ccc(C(F)(F)F)nc3F)c3ccccc3c2=O)cc1`, which IC50 (HepG2 2.2.15) is on record?
The IC50 was 200 nM.

For `O=c1cc(-c2ccccc2)oc2cc(O)cc(O)c12` [CHRYSIN], which EC50 (Hepatitis B virus [3]) is on record?
The EC50 was 22500 nM.

For `CC[C@H](C)C[C@H](C)C(=O)O[C@]1(C)C(=O)c2c(cc(O)c3c2C[C@@H](O)C[C@H]3C)[C@@](C)(O)C1=O`, which IC50 [5] is on record?
Its IC50 is 610 nM.

For `CCOC(=O)c1ccnc(CNCC(=O)N(CC)CCN(C)C)c1`, which EC50 (Hepatitis B virus [6]) is on record?
The EC50 was 34 nM.

Which EC50 (Hepatitis B virus [7]) does the source give for `Cc1cc(N)c(S(N)(=O)=O)cc1C(=O)Nc1cc(F)c(F)c(F)c1` here?
Its EC50 is 60 nM.

With `O=C(OCc1ccc(-c2cnc3ccccc3n2)cc1)c1cccs1` as the compound, how does the EC50 (Hepatitis B virus [1]) read?
Its EC50 is over 10000 nM.

With `CCOC(=O)c1cc(-c2cc(=O)oc3ccccc23)oc1C` as the compound, how does the IC50 [8] read?
The IC50 was 16700 nM.

For `CCOC(=O)C1=C(CN2CCN(C(C(=O)O)c3cccc([N+](=O)[O-])c3)CC2)NC(c2nccs2)=NC1c1ccc(F)cc1Br` (stereo not given), which EC50 (Hepatitis B virus [4]) is on record?
Its EC50 is 24 nM.

With `COc1cc(C[C@@H]2CO[C@@H](c3ccc(O)c(OC)c3)[C@@H]2CO)ccc1O` [(-)-Lariciresinol] as the compound, how does the EC50 (Hepatitis B virus [9]) read?
Its EC50 is 42600 nM.

Which IC50 (SRSF protein kinase 1) does the source give for `CCc1cc2c(cc1-c1cccc(S(=O)(=O)F)c1)C(C)(C)c1[nH]c3cc(C#N)ccc3c1C2=O` here?
Its IC50 is 9400 nM.

Which EC50 (Hepatitis B virus [10]) does the source give for `CC(C)OC(=O)[C@H](C)NP(=O)(OC[C@@]1(F)CO[C@@H](n2cnc3c(N)ncnc32)[C@@H]1CO)Oc1ccccc1` (stereo not given in full) here?
Its EC50 is 80 nM.

Which IC50 [5] does the source give for `CCCCCCCc1cc(OC(=O)c2c(CCCCCCC)cc(O)cc2O[C@H]2O[C@@H](CO)[C@@H](O)[C@@H](O)[C@@H]2O)cc(O)c1C(=O)O` here?
The IC50 was 2200 nM.

For `CCOC(=O)C1=C(CN2CCOCC2)NC(c2nccs2)=NC1c1ccc(F)cc1Br` (stereo not given), which EC50 (Hepatitis B virus [4]) is on record?
Its EC50 is 100 nM.

For `Cc1cc(/N=N/c2ccc(S(=O)(=O)Nc3ccccn3)cc2)c(N)cc1O`, which EC50 (Hepatitis B virus [6]) is on record?
Its EC50 is 15600 nM.

Which IC50 [11] does the source give for `Cc1cn(-c2ccc3c(c2)CN(c2ncc(Cc4ccc(-n5cccn5)cc4)s2)CC3)c(C)n1` here?
Its IC50 is under 620 nM.

With `COc1cc2c(O[C@@H]3OC[C@](O)(CO[C@@H]4OC[C@@H](O)[C@H](O)[C@H]4O)[C@H]3O[C@@H]3OC[C@H](O)[C@H](O)[C@H]3O)c3c(c(-c4ccc5c(c4)OCO5)c2cc1OC)C(=O)OC3` [CILIATOSIDE A] as the compound, how does the EC50 (Hepatitis B virus [3]) read?
The EC50 was 3360 nM.

What about the EC50 (Hepatitis B virus [12]) of the same compound?
The EC50 was 5130 nM.

For `COc1cc([C@H]2c3cc4c(cc3[C@H](n3cc(CO[C@H]5CC[C@]6(C)[C@H]7CC=C8[C@@H]9CC(C)(C)CC[C@]9(C(=O)O)CC[C@@]8(C)[C@]7(C)CC[C@H]6C5(C)C)nn3)[C@H]3COC(=O)[C@H]23)OCO4)cc(OC)c1OC`, which IC50 [2] is on record?
The IC50 was 70 nM.

With `CCOC(=O)c1cc(-c2cc(C(=O)OCC)c3ccccc3n2)nc2ccccc12` as the compound, how does the EC50 (Hepatitis B virus [1]) read?
The EC50 was over 10000 nM.

With `CCCCCCCc1cc(OC(=O)c2c(CCCCCCC)cc(O)cc2O[C@H]2O[C@@H](CO)[C@H](O)[C@@H](O)[C@@H]2O)cc(O)c1C(=O)O` as the compound, how does the IC50 [5] read?
The IC50 was 1700 nM.
